Reference: paper PMC10322718, “Expanding the substrate scope of pyrrolysyl-transfer RNA synthetase enzymes to include non-α-amino acids in vitro and in vivo” (Nature Chemistry, 2023)

B1: MaFRSA (Methanomethylophilus alvus pyrrolysyl-tRNA synthetase, MaPylRS, N166A V168A) (enzyme)
chain: MTVKYTDAQIQRLREYGNGTYEQKVFEDLASRDAAFSKEMSVASTDNEKKIKGMIANPSRHGLTQLMNDIADALVAEGFIEVRTPIFISKDALARMTITEDKPLFKQVFWIDEKRALRPMLAPNLYSVMRDLRDHTDGPVKIFEMGSCFRKESHSGMHLEEFTMLALADMGPRGDATEVLKNYISVVMKAAGLPDYDLVQEESDVYKETIDVEINGQEVCSAAVGPHYLDAAHDVHEPWSGAGFGLERLLTIREKYSTVKKGGASISYLNGAKIN
notes: Pyrrolysyl-tRNA synthetase (PylRS) of Methanomethylophilus alvus with N166A and V168A; construct GSS linker-6xHis-SSG linker-thrombin site-MaFRSA from pET32a-6xHis-thrombin-MaFRSA, tag removed with thrombin; Crystallised with m-CF3-2-benzylmalonate and AMP-PNP; source: E. coli BL21-Gold (DE3)pLysS, purified (TALON, thrombin cleavage, Superdex 200); not shown: 6xHis, N-terminal, cleaved

Experiments:
MaPylRS = biological target: T1, MaPylRS (Methanomethylophilus alvi, UniProt M9SC49, N166A/V168A); assay: X-ray crystal structure, […] Å; type: binding; settings: ternary complex with AMP-PNP; active site, two orientations (chains A and B)
T1 construct: gene MMALV_11280; pET32a, E. coli BL21-Gold(DE3)pLysS, Ni-NTA; for crystals 6xHis-thrombin site N-terminal, tag cut; dimer in crystal

[1] = biological target: the molecule itself; assay: crystal structure; MaFRSA with 100 mM m-CF3-2-BMA and 10 mM AMP-PNP, hanging-drop vapour diffusion at 18 °C, 10 mM Tris-HCl pH 7.4, 26% PEG 3,350; space group I4, two copies in the asymmetric unit, 1.8 Å

| Molecule | X-ray crystal structure, 1.8 Å (MaPylRS) | binding result [1] |
| --- | --- | --- |
| O=C(O)C(Cc1cccc(C(F)(F)F)c1)C(=O)O [compound 18, m-CF3-2-BMA] | we solved the crystal structure of MaFRSA bound to both m-CF3-2-BMA and the non-hydrolysable ATP analogue | – |
| B1 | – | binds |
